Patent US20040024056A1, “Dihydrofuran cyclic tanshinones used in treating hyperammonemia and hepatic encephalopathy” (priority 2001, published 2004)

Assays:
hyperammonemia rats [1] = experiment: Blood ammonia reducing experiment (in injection), acetamide-treated rats; format: in vivo, SD rats; settings: for Blood ammonia concentration / Reduction rate: i.p. for 4 days, sodium glutamate 410 mg/kg
Protocol: The animals used in this experiment were 50 healthy male SD rats weighing 250-300 g. They were randomly divided into 5 groups, that is, group of normal control, experimental control (acetamide group), sodium glutamate/acetamide group, Dihydortanshinone I/acetamide group and tanshinone IIA/acetamide group. The rats in all those groups except the normal control group were injected intraperitoneally with saline, sodium glutamate injection (with a dose of 410 mg/kg), saline solution of Dihydortanshinone I (containing small amount of surface active agent, with a dose of 10 mg/kg), saline solution of tanshinone IIA (containing small amount of surface active agent, with a dose of 10 mg/kg) respectively. 45 min after the injection, the rats in all those groups except control group were injected intraperitoneally with 5.5 mmol/kg acetamide. Above injections continued for 4 days. In the 4th day, 30 min after the acetamide injection, blood samples of the rats in each group were collected by eyeball removing method immediately, and processed with the anticoagulant EDTA-Na, then the blood ammonia concentration was determined using conventional method. […] The dose of […] in this example and following examples was settled with the reference of its actual clinical dose. The method for determining the blood ammonia concentration in this example and following examples was enzyme-UV method, the instrument used was HITACHI-7170 automatic analyzer, and the kit used was AMMONIA kit.
(§1) With the same experiment method, 90 min after the acetamide injection at the 4th day, blood samples of the rats in each group were collected by eyeball removing method immediately, and processed with the anticoagulant EDTA-Na, then the blood ammonia concentration was determined.
The animals used in this experiment were 40 healthy male SD rats weighing 250-300 g. They were randomly divided into 4 groups, that is, normal control group, experimental control group (acetamide group), sodium glutamate/acetamide group, and Cryptotanshinone/acetamide group. The rats in all those groups except the normal control group were injected intraperitoneally with saline, sodium glutamate injection (with a dose of 410 mg/kg), and saline solution of Cryptotanshinone (containing small amount of surface active agent, with a dose of 10 mg/kg) respectively. 45 min after the injection, the rats in all those groups except the normal control group were injected intraperitoneally with 5.5 mmol/kg acetamide. Above injections continued for 4 days. In the 4th day, 30 min after the acetamide injection, blood samples of the rats in each group were collected by eyeball removing method immediately, and processed with the anticoagulant EDTA-Na, then the blood ammonia concentration was determined.

hyperammonemia rats [2] = experiment: Blood ammonia reducing experiment (in oral), acetamide-treated rats; format: in vivo, SD rats
Protocol: In the 4th day, 30 min after the acetamide injection, blood samples of the rats in each group were collected by eyeball removing method immediately, and processed with the anticoagulant EDTA-Na, then the blood ammonia concentration was determined.
as §1

[3] = tested on: acute hepatocirrhosis hyperammnonemia rat model; experiment: Coma and death caused by acute hepatocirrhosis in rats (in injection); format: in vivo, SD rats; settings: Table 9; i.p. 4 days, Cryptotanshinone 10 mg/kg, sodium glutamate 410 mg/kg; tetrachloro-methane peanut oil; 8.5 mmol/kg acetamide i.p. on 4th day
Protocol: The animals used in this experiment were 40 healthy male SD rats weighing 250-300 g. They were randomly divided into 4 groups, that is, group of normal control, experimental control (acetamide group), sodium glutamate/acetamide group, and Cryptotanshinone/acetamide group. The rats in all those groups except the normal control group were injected intraperitoneally with saline, sodium glutamate injection (with a dose of 410 mg/kg), and saline solution of Cryptotanshinone (containing small amount of surface active agent, with a dose of 10 mg/kg) respectively. 45 min after the injection, the rats in all those groups except the normal control group were injected intraperitoneally with peanut oil containing 0.1% tetrachloro-methane. Above injections continued for 4 days. In the 4th day, 45 min after the tetrachloride peanut oil injection, the rats in each group (including the normal control group) were injected intraperitoneally with 8.5 mmol/kg acetamide solution. The time from acetamide injection to coma (latent period), from coma to awakening (coma time) and death rate in rats was recorded.

[4] = tested on: acute hepatocirrhosis hyperammnonemia rat model; experiment: Coma and death caused by acute hepatocirrhosis in rats (in oral); format: in vivo, SD rats; settings: Table 10; Cryptotanshinone oral 100 mg/kg; tetrachloro-methane peanut oil; 8.5 mmol/kg acetamide i.p. on 4th day
Protocol: The time from acetamide injection to coma (latent period), from coma to awakening (coma time) and death rate in rats was recorded.

healthy male mice [5] = experiment: Acute toxicity test in mouse
Source text: Acute toxicity test in mouse: The animals used in this study were healthy male mice. The drug was administrated intragastrically for 7 days once daily.

healthy male mice [6] = experiment: 30 days toxicity test in mouse; format: in vivo; settings: intragastric, 200 mg/kg day
Protocol: The drug was continually administrated intragastrically for 30 days with dose of 200 mg/kg day.

[7] = Table 3, Cryptotanshinone 10 mg/kg, blood 30 min after acetamide on 4th day
[8] = Table 4, Cryptotanshinone 10 mg/kg, blood 90 min after acetamide on 4th day
[9] = Table 7, Cryptotanshinone in oral (intragastric 100 mg/kg), blood 30 min after acetamide on 4th day
[10] = Table 8, Cryptotanshinone in oral (intragastric 100 mg/kg), blood 90 min after acetamide on 4th day
[11] = Table 1, tanshinones 10 mg/kg, blood 30 min after 5.5 mmol/kg acetamide on 4th day
[12] = Table 1, tanshinones 10 mg/kg, blood 30 min after acetamide on 4th day
[13] = Table 2, tanshinones 10 mg/kg, blood 90 min after acetamide on 4th day
[14] = Table 5, tanshinones intragastric 100 mg/kg, acetamide 120 min later, blood 30 min after acetamide on 4th day
[15] = Table 6, tanshinones intragastric 100 mg/kg, blood 90 min after acetamide on 4th day

Row | Compound | Blood ammonia concentration (hyperammonemia rats [1]; [7]) [µmol/L] | Reduction rate (hyperammonemia rats [1]; [7]) [%] | Blood ammonia concentration (hyperammonemia rats [1]; [8]) [µmol/L] | Reduction rate (hyperammonemia rats [1]; [8]) [%] | Blood ammonia concentration (hyperammonemia rats [2]; [9]) [µmol/L] | Reduction rate (hyperammonemia rats [2]; [9]) [%] | Blood ammonia concentration (hyperammonemia rats [2]; [10]) [µmol/L] | Reduction rate (hyperammonemia rats [2]; [10]) [%] | Coma time (from coma to awakening) [3] [min] | Latent period (time from acetamide injection to coma) [3] [min] | Mortality [3] [%] | Coma time (from coma to awakening) [4] [min] | Blood ammonia concentration (hyperammonemia rats [1]; [11]) [µmol/L] | Reduction rate (hyperammonemia rats [1]; [12]) [%] | Blood ammonia concentration (hyperammonemia rats [1]; [13]) [µmol/L] | Reduction rate (hyperammonemia rats [1]; [13]) [%] | Blood ammonia concentration (hyperammonemia rats [2]; [14]) [µmol/L] | Reduction rate (hyperammonemia rats [2]; [14]) [%] | Blood ammonia concentration (hyperammonemia rats [2]; [15]) [µmol/L] | Reduction rate (hyperammonemia rats [2]; [15]) [%] | further results
1 | C[C@H]1COC2=C1C(=O)C(=O)c1c2ccc2c1CCCC2(C)C [Cryptotanshinone, 1,6,6-trimethyl-1,2,6,7,8,9-hexahydrophenanthrene[1,2-b]furan-10,11-dione] | 420 | 60 | 110 | 100 | 470 | 54 | 120 | 97 | 65 | 12 | 20 | 75 | – | – | – | – | – | – | – | – | Latent period (time from acetamide injection to coma) [4]: 12 min; Mortality [4]: 20%; LD50 (healthy male mice [5]; mice, intragastric, once daily for 7 days): > 1500 mg/kg; Toxic symptom or death (healthy male mice [5]; mice, intragastric, once daily for 7 days, dose up to 1.5 g/kg): no toxic symptom or death; Toxicity, overall conclusion (healthy male mice [5]; summary statement): safe to use as drug in normal dosage; Death of mice (healthy male mice [6]): no death of mice manifested; Growth and development, hematopoietic function, biochemical index (healthy male mice [6]): no apparent abnormal change or toxic reaction; Pathology of major organs (anatomical and tissue microscopy inspection) (healthy male mice [6]): No pathology change of major organs
2 | Cc1cccc2c3c(ccc12)C1=C(C(=O)C3=O)C(C)CO1 (centres unmarked) [Dihydortanshinone I, 1,6-dimethyl-1,2-dihydrophenanthrene[1,2-b]furan-10,11-dione] | – | – | – | – | – | – | – | – | – | – | – | – | 490 | 51 | 125 | 96 | 550 | 44 | 135 | 89 | –
3 | N[C@@H](CCC(=O)[O-])C(=O)[O-].[Na+].[Na+] [Sodium Glutamate] | 480 | 53 | 110 | 100 | 510 | 49 | 130 | 91 | 75 | 11 | 50 | 90 | 480 | 53 | 120 | 97 | 510 | 49 | 130 | 91 | Latent period (time from acetamide injection to coma) [4]: 9 min; Mortality [4]: 50%
4 | Cc1coc2c1C(=O)C(=O)c1c-2ccc2c1CCCC2(C)C [Tanshinone IIA] | – | – | – | – | – | – | – | – | – | – | – | – | 850 | <5 | 265 | <12 | 865 | <4 | 270 | <10 | Function to reduce the blood ammonia concentration (hyperammonemia rats [1]; hyperammonemia animal model, summary statement): have no such function
